The conditions of data set [1]: compared to OC alone, cited from earlier work; for decrease of Cmax: repeated daily doses of OC given 30 minutes after BYETTA (10 mcg BID), healthy female subjects; for decrease of mean Cmax: repeated daily doses of OC one hour prior to BYETTA.
Data set [2] is described as follows: Crossover study of ITCA 650 on steady-state PK and PD of the combination oral contraceptive Levora. The note with it: ITCA 650 60 mcg/day, healthy premenopausal women. As to the method:
Twenty-eight (28) healthy premenopausal women on a stable regimen of an OC participated in a randomized, double-blind, placebo-controlled, 2-period crossover study. […] The study included a 2-week run-in on Levora and 2 treatment periods of 28 days each. […] Subjects were crossed over to the alternative treatment and procedures were repeated in Period 2. The OC was administered daily through D28 of each period.

For data set [3] the following is noted: human, in vivo, po. On the procedure:
APAP, a marker of gastric emptying, was administered on Day (D)1 followed by the cocktail on D2. […] APAP was administered again on D27 and the cocktail on D28.

The conditions of data set [4]: cited from earlier work.
The mark [5] stands for this setting: 1000 mg acetaminophen elixir given 1 hour after 10 mcg BYETTA injection.
Where [6] appears, read: 1000 mg acetaminophen elixir given 2 hours after 10 mcg BYETTA injection.
Where [7] appears, read: 1000 mg acetaminophen elixir given 4 hours after 10 mcg BYETTA injection.
Setting [8] is: 1000 mg acetaminophen elixir given with 10 mcg BYETTA (0 h).
Setting [9] is: acetaminophen given 1 hour before BYETTA injection.

Read-outs that look alike come from different tables or passages of the source.

On to `C#C[C@]1(O)CC[C@H]2[C@@H]3CCC4=CC(=O)CC[C@@H]4[C@H]3CC[C@@]21CC` [levonorgestrel], for which, in data set [1], the “decrease of Cmax” value is listed as 27% and the “decrease of mean Cmax” value was “not significantly changed”. For the same molecule, in data set [2], the “effect of ITCA 650 on PK” value is “No effect”.

Take `C#C[C@]1(O)CC[C@H]2[C@@H]3CCc4cc(O)ccc4[C@H]3CC[C@@]21C` [ethinyl estradiol]: in data set [1], the “decrease of Cmax” value is on record as 45% and the “decrease of mean Cmax” value is 15%.

For `CC(=O)Nc1ccc(O)cc1` [acetaminophen], the “effect of ITCA 650 on PK of the co-administered drug” value in data set [3] is “minimal effect”. In data set [4] (setting [5]), the Tmax (as a rule, the time at which the peak concentration occurs) is 4.2 h; the “decrease of Cmax” value is given as 56%; the “decrease of acetaminophen AUC” value is recorded as 23%. Further, in data set [4] (setting [6]), the Tmax was 3.3 h, the “decrease of Cmax” value was 54% and the “decrease of acetaminophen AUC” value is reported as 24%. In addition, in data set [4] (setting [7]), the Tmax is 1.6 h, the “decrease of Cmax” value was 41% and the “decrease of acetaminophen AUC” value is 14%. In data set [4] (setting [8]), the Tmax was 0.9 h, the “decrease of Cmax” value is 37% and the “decrease of acetaminophen AUC” value is 21%. Further, in data set [4] (setting [9]), the AUC change result is reported as “not significantly changed”, the Cmax change result is “not significantly changed” and the Tmax change entry was “not significantly changed”. In addition, the Tmax in data set [4] (control period (without BYETTA)) was 0.6 h.

The values above are taken from patent US11654183B2 (INTARCIA THERAPEUTICS, INC., priority 2017, dated 2023).
